Measurements reported in patent publication US20060105045A1, “Cyclodextrin solubilizers for liquid and semi-solid formulations” (priority 2004, published 2006).
Where a name gives a salt, the structure may show the parent alone.

Legend:
[1] = Initial solubility screening of selected drugs in cyclodextrin derivative:water-miscible organic solvent stock solutions; assay type: physicochemical; details: for grams of stock solution required to solubilize the drug, Stock #2 / grams of stock solution required to solubilize the drug, Stock #3 / grams of stock solution required to solubilize the drug, Stock #1 / grams of stock solution required to solubilize the drug, Stock #5 / grams of stock solution required to solubilize the drug, Stock #6 / grams of stock solution required to solubilize the drug, Stock #4 / grams of stock solution required to solubilize the drug, Stock #7: 20-22 mg drug, raloxifene HCl + ca. 100 mg water, tamoxifen citrate + ca. 40 mg water; for grams of stock solution required to solubilize the drug, Stock #2 / grams of stock solution required to solubilize the drug, Stock #3 / grams of stock solution required to solubilize the drug, Stock #1: HBenβCD5.0 (30 wt %); for grams of stock solution required to solubilize the drug, Stock #2 / grams of stock solution required to solubilize the drug, Stock #3: PEG 400 (66.2 wt %); for grams of stock solution required to solubilize the drug, Stock #2: EtOH (3.8 wt %); for grams of stock solution required to solubilize the drug, Stock #3: PG (3.8 wt %); for grams of stock solution required to solubilize the drug, Stock #1: PEG 400 (70 wt %); for grams of stock solution required to solubilize the drug, Stock #5 / grams of stock solution required to solubilize the drug, Stock #6 / grams of stock solution required to solubilize the drug, Stock #4: HBenβCD6.6 (32 wt %); for grams of stock solution required to solubilize the drug, Stock #5 / grams of stock solution required to solubilize the drug, Stock #6: PEG 400 (64.6 wt %); for grams of stock solution required to solubilize the drug, Stock #5 / grams of stock solution required to solubilize the drug, Stock #7: EtOH (3.4 wt %); for grams of stock solution required to solubilize the drug, Stock #6: PG (3.4 wt %); for grams of stock solution required to solubilize the drug, Stock #4: PEG 400 (68 wt %); for grams of stock solution required to solubilize the drug, Stock #7: SulfoHBenCD (29 wt %), PEG 400 (67.6 wt %); for amount of stock solutions in which the drug was soluble: after mixing for ca. 48 h, all stock solutions
Protocol: In the following experiments, the water-miscible solvents were dried as described in example 1. The hydroxybutenyl-β-cyclodextrins (HBenβCD6.6 and HBenβCD5.0) and the sulfonated hydroxybutenyl-β-cyclodextrins (MSsulfonate=0.3, MSbutentyl=4.4) were carefully dried prior to use. The following stock solutions were prepared:
2. HBenβCD5.0 (30 wt %), PEG 400 (66.2 wt %), and EtOH (3.8 wt %)
7. SulfoHBenCD (29 wt %), PEG 400 (67.6 wt %), and EtOH (3.4 wt %)
Various drugs (20-22 mg) were weighed into different glass vials with screw caps. To each vial was added 1 gram (g) ±0.02 g of stock solution. The vial contents were mixed for ca. 48 h. Vials were inspected visually to determine whether the drugs were dissolved.

[2] = Pharmacokinetic study, oral bioavailability of tamoxifen:HBenBCD complexes; assay type: in vivo, Sprague-Dawley rats; details: male, Sprague-Dawley, rat, plasma, 10 mg/kg
Protocol: 7, 2005, concurrently with this application (no Serial assigned at this time). […] The solid complexes were dissolved in the appropriate amount of water for aqueous oral dosing of animals.
The study animal were male Sprague-Dawley rats. […] Each group was sub-divided into 4 groups of 3 animals on the basis of time of dosing (AM or PM) and diet (fed or fasted). In the case of fasted animals, food was removed 8 hours prior to dosing then returned 5 hours post-dose.
Blood samples (ca. 300 μL) were collected from each animal via the jugular or sublingual vein at 1, 2, 3, 4, 6, 12 and 24 hours post-dose. Plasma was separated and stored in 96 well plates at −17 to −80° C. until analysis. […] Plasma (100 μL) was precipitated with 250 μL of acetonitrile. After centrifugation, the supernatant was analyzed for tamoxifen, hydroxytamoxifen, and desmethyltamoxifen by reversed phase LC-MS-MS using diphenhydramine as an internal standard.
This oral suspension dose was given to fed animals in the AM.
The area under the plasma concentration-time curve (AUC) from time zero to 24 h (AUC0-24h) and from time zero to infinity (AUC0-∞) was calculated by standard methods (Clinical Pharmacokinetics, Malcolm Rowland and Thomas Tozer, Lippincott, Williams, & Wilkins, 1995). Oral bioavailability was determined using the AUC from the IV and oral doses adjusted for the animal dose.

Row | Compound | grams of stock solution required to solubilize the drug, Stock #2 [1] [grams] | grams of stock solution required to solubilize the drug, Stock #3 [1] [grams] | grams of stock solution required to solubilize the drug, Stock #1 [1] [grams] | grams of stock solution required to solubilize the drug, Stock #5 [1] [grams] | grams of stock solution required to solubilize the drug, Stock #6 [1] [grams] | grams of stock solution required to solubilize the drug, Stock #4 [1] [grams] | grams of stock solution required to solubilize the drug, Stock #7 [1] [grams] | amount of stock solutions in which the drug was soluble [1] [g] | bioavailability [2] [%]
1 | CC(C)(C#N)c1cc(Cn2cncn2)cc(C(C)(C)C#N)c1 [Anastrozole] | 1.0 | 1.0 | 1.0 | 1.0 | 1.0 | 1.0 | 1.0 | 1 | –
2 | C=C1C[C@@H]2[C@H](CC[C@]3(C)C(=O)CC[C@@H]23)[C@@]2(C)C=CC(=O)C=C12 [Exemestane] | 1.5 | 1.5 | 1.5 | 1.5 | 1.5 | 1.5 | 1.5 | – | –
3 | CC(=O)O[C@H]1C(=O)[C@@]2(C)[C@H]([C@H](OC(=O)c3ccccc3)[C@]3(O)C[C@H](OC(=O)[C@H](O)[C@@H](NC(=O)c4ccccc4)c4ccccc4)C(C)=C1C3(C)C)[C@]1(OC(C)=O)CO[C@@H]1C[C@@H]2O [Paclitaxel] | 1.0 | 1.0 | 1.0 | 1.0 | 1.0 | 1.0 | 1.0 | 1 | –
4 | O=C(c1ccc(OCCN2CCCCC2)cc1)c1c(-c2ccc(O)cc2)sc2cc(O)ccc12 [Raloxifene HCL] | 1.4 | 1.6 | 1.5 | 1.6 | 1.6 | 1.6 | 1.1 | – | –
5 | CC/C(=C(\c1ccccc1)c1ccc(OCCN(C)C)cc1)c1ccccc1 [Tamoxifen] | – | – | – | – | – | – | – | – | 5
